Assay results published in patent US11679110B2, “Methods of treating disorders using CSF1R inhibitors” (Deciphera Pharmaceuticals, LLC, priority 2018, dated 2023).

Legend:
[1] = Dose escalation 3+3 design, DLT / maximum tolerated dose in patients; assay type: in vivo, human; details: through Cohort 7
Source text: A minimum of 3 patients is enrolled in each dose level cohort. If a patient experiences a DLT during Cycle 1, then the cohort will be expanded to 6 patients. If ≥2 patients out of 3 to 6 patients experience one or more dose-limiting toxicities (DLT(s)) during Cycle 1, dose escalation will end, and a lower dose level cohort will be expanded for determination of the maximum tolerated dose (MTD). If no additional patients experience a DLT in the expanded cohort, the dose level will be escalated. Decisions of dose escalation and the dose level of the next cohort will be determined. A patient will be evaluable in the dose escalation phase if the patient either experienced a DLT during Cycle 1 or received ≥80% of planned doses of study drug in Cycle 1. After Dose Escalation Cohort 6, a review of safety, PK and PD data will determine future escalation cohorts. No more than 50% increases in a total dose given in the first cycle will be allowed from the previous cohort.
The MTD will be defined as the highest dose level at which no more than 1 of 6 DLT-evaluable patients experiences a DLT(s) in Cycle 1 during dose escalation. An additional, lower, intermediate dose level may be explored to determine a recommended phase 2 dose (RP2D). The RP2D will be the MTD or a biologically active or maximally feasible dose lower than the MTD. Different RP2Ds may be determined for solid tumor and DTGCT patients. […]

[2] = system: intratumoral macrophages; details: MC38 mice; oral QD; 21 days
[3] = system: advanced solid tumors; assay: Antitumor activity in patients with advanced solid tumors, RECIST 1.1; assay type: in vivo, human
Source text: The study enrolls patients with solid tumors or manifestations of cancer with known contribution of macrophages or phagocytes, i.e., tumors known to have expression of the receptor colony-stimulating factor 1 receptor (CSF1R) or its ligands, Colony stimulating factor-1 (CSF1) or interleukin (IL)-34, confirmed by the literature or prior testing. […]. In addition, tumor-associated manifestations featuring macrophage or osteoclast pathophysiology including bone metastases and ascites or effusions that typically contain high levels of macrophages will be enrolled. […].
The study consists of a screening period that is conducted within 28 days prior to the first dose of study drug, a treatment period of 28-day cycles, an End of Treatment visit, and Follow-up Safety visits at both 30 days and 75 days (±5 days) after the last dose of study drug. Patients will be eligible to receive study drug for up to 2 years until tumor progression, occurrence of unacceptable toxicity, or withdrawal of consent, or until commercial supply of the drug is available. […] Patients may continue receiving treatment after tumor progression. […]
Tumor response will be assessed by tumor type using the following criteria: for solid tumors and DTGCT: RECIST, Version 1.1; and for bone-only disease: a new lesion(s) identified by bone scan will be considered as disease progression.

Compound: Cc1nc(-c2cnc(NC(C)C)n(C)c2=O)ccc1Oc1ccnc(-c2cnn(C)c2)c1 [Compound 1, 2-(isopropylamino)-3-methyl-5-(6-methyl-5-((2-(1-methyl-1H-pyrazol-4-yl)pyridin-4-yl)oxy)pyridin-2-yl)pyrimidin-4(3H)-one]
- MTD [1]: has not been reached
- reduction in intratumoral macrophages compared to vehicle or isotype controls (as a percent of all cells in the tumor) [2]: > 80%
- duration of stable disease ([3]; a patient with thymoma): 6 months
- patients with a best response of stable disease ([3]; advanced solid tumors, dose escalation): 5 patients
